Test results reported in US9469615B2, “Quinoxalines and AZA-quinoxalines as CRTH2 receptor modulators” (Merck Sharp & Dohme Corp., priority 2010, dated 2016).

Biological target: T1, hCRTH2 (Homo sapiens, UniProt Q9Y5Y4)
T1 construct: expressed in transfected cells; host or cells: HEK (human embryonic kidney) cells expressing hCRTH2; membrane preparation
T1 sequence (Q9Y5Y4 1-395): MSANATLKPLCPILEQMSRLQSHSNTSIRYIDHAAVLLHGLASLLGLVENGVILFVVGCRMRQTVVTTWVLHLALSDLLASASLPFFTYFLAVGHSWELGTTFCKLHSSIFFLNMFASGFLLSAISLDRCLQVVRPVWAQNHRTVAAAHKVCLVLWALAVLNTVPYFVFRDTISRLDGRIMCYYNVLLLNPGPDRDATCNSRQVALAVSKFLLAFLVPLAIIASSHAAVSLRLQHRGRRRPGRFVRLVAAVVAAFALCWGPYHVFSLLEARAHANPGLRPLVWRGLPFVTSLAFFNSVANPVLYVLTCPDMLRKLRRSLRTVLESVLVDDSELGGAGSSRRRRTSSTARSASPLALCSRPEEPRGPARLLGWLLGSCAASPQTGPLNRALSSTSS
Experiment: Radioligand binding assay ([3H]PGD2 competition, HEK-hCRTH2 membranes)
Settings: [3H]PGD2 competition, Table B
In short: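 Filter-bound radioactivity was counted by scintillation after 60 min incubations at room temperature. Membranes (8-20 μg) from HEK cells expressing hCRTH2 competed test ligands against 3.0 nM [3H]PGD2 in Tris-HCl pH 7.4 buffer with EDTA and 2 mM MnCl2; 10 μM PGD2 set non-specific binding.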

O=C(O)C1CCC(Cc2nc3cc(C(=O)N4CC(c5ccc(F)c(F)c5)C4)ccc3nc2-c2ccc(Cl)cc2)C1 (stereo not drawn) [compound 398, 3-((3-(4-chlorophenyl)-7-(3-(3,4-difluorophenyl)azetidine-1-carbonyl)quinoxalin-2-yl)methyl)cyclopentane-carboxylic acid]
Ki: 2.1 to 20 nM

CC(C)[C@@H](NC(=O)c1ccc2nc(-c3ccc(Cl)cc3)c(CCCCC(=O)O)nc2c1)c1ccc(F)cc1 [compound 399, (R)-5-(3-(4-chlorophenyl)-7-((1-(4-fluorophenyl)-2-methylpropyl)carbamoyl)quinoxalin-2-yl) pentanoic acid]
Ki: 2.1 to 20 nM

N#Cc1ccc(C2CN(C(=O)c3ccc4nc(-c5ccc(Cl)cc5)c(CC5CCC(C(=O)O)C5)nc4c3)C2)cc1 (stereo not drawn) [compound 400, 3-((3-(4-chlorophenyl)-7-(3-(4-cyanophenyl)azetidine-1-carbonyl)quinoxalin-2-yl)methyl)cyclopentane-carboxylic acid]
Ki: 2.1 to 20 nM

O=C(N[C@H](c1ccc(Cl)cc1)C(F)(F)F)c1ccc2nc(-c3ccc(Cl)cc3)c(CC3CCC(C(=O)O)C3)nc2c1 (stereo partly drawn) [compound 401]
Ki: 20.1 to 200 nM

CC(C)[C@H](NC(=O)c1ccc2nc(-c3ccc(Cl)cc3)c(CCCCC(=O)O)nc2c1)c1ccc(F)cc1 [compound 402, (S)-5-(3-(4-chlorophenyl)-7-((1-(4-fluorophenyl)-2-methylpropyl)carbamoyl)quinoxalin-2-yl) pentanoic acid]
Ki: 2.1 to 20 nM

C[C@@H](NC(=O)c1ccc2nc(-c3ccc(Cl)cc3)c(CCCCC(=O)O)nc2c1)c1ccc(C#N)cc1 [compound 403, (R)-5-(3-(4-chlorophenyl)-7-((1-(4-cyanophenyl)ethyl)carbamoyl)quinoxalin-2-yl)pentanoic acid]
Ki: 0.1 to 2 nM

C[C@H](NC(=O)c1ccc2nc(-c3ccc(Cl)cc3)c(CC3CCC(C(=O)O)C3)nc2c1)c1ccccc1 (stereo partly drawn) [compound 404, 3-((3-(4-chlorophenyl)-7-(((S)-1-phenylethyl)carbamoyl)quinoxalin-2-yl)methyl)cyclopentane-carboxylic acid]
Ki: 2.1 to 20 nM

O=C(N[C@@H](c1ccccc1)C(F)(F)F)c1ccc2nc(-c3ccc(Cl)cc3)c(CC3CCC(C(=O)O)C3)nc2c1 (stereo partly drawn) [compound 405, 3-((3-(4-chlorophenyl)-7-(((S)-2,2,2-trifluoro-1-phenylethyl)carbamoyl)quinoxalin-2-yl)methyl)cyclopentane-carboxylic acid]
Ki: 2.1 to 20 nM

O=C(N[C@@H](c1ccc(Cl)cc1)C(F)(F)F)c1ccc2nc(-c3ccc(Cl)cc3)c(CC3CCC(C(=O)O)C3)nc2c1 (stereo partly drawn) [compound 406, 3-((3-(4-chlorophenyl)-7-(((S)-1-(4-chlorophenyl)-2,2,2-trifluoroethyl)carbamoyl)quinoxalin-2-yl)methyl)cyclopentane-carboxylic acid]
Ki: 2.1 to 20 nM

C[C@H](NC(=O)c1ccc2nc(-c3ccc(Cl)cc3)c(CC3CCC(C(=O)O)C3)nc2c1)c1ccc(F)cc1 (stereo partly drawn) [compound 407, 3-((3-(4-chlorophenyl)-7-(((S)-1-(4-fluorophenyl)ethyl)carbamoyl)quinoxalin-2-yl)methyl)cyclopentane-carboxylic acid]
Ki: 2.1 to 20 nM

CC(CCCc1nc2cc(C(=O)N[C@H](C)c3ccc(F)cc3)ccc2nc1-c1ccc(Cl)cc1)C(=O)O (stereo partly drawn) [compound 408, 5-(3-(4-chlorophenyl)-7-(((R)-1-(4-fluorophenyl)ethyl)carbamoyl)quinoxalin-2-yl)-2-methylpentanoic acid]
Ki: 0.1 to 2 nM

CC(CCCc1nc2cc(C(=O)N[C@H](C)c3ccc(F)cc3)ccc2nc1-c1ccc(Cl)cc1)C(=O)O (stereo partly drawn) [compound 409, 5-(3-(4-chlorophenyl)-7-(((R)-1-(4-fluorophenyl)ethyl)carbamoyl)quinoxalin-2-yl)-2-methylpentanoic acid]
Ki: 20.1 to 200 nM

C[C@@H](NC(=O)c1ccc2nc(-c3cccc(C#N)c3)c(CCCCC(=O)O)nc2c1)c1ccc(F)cc1 [compound 410, (R)-5-(3-(3-cyanophenyl)-7-((1-(4-fluorophenyl)ethyl)carbamoyl)quinoxalin-2-yl)pentanoic acid]
Ki: 20.1 to 200 nM

C[C@@H](NC(=O)c1ccc2nc(-c3ccc(F)c(F)c3)c(CCCCC(=O)O)nc2c1)c1ccc(F)cc1 [compound 411]
Ki: 20.1 to 200 nM

C[C@@H](NC(=O)c1ccc2nc(-c3ccc(Cl)cc3)c(CCCCC(=O)O)nc2c1)c1cc(F)cc(F)c1 [compound 412, (R)-5-(3-(4-chlorophenyl)-7-((1-(3,5-difluorophenyl)ethyl)carbamoyl)quinoxalin-2-yl) pentanoic acid]
Ki: 0.1 to 2 nM

C[C@H](NC(=O)c1ccc2nc(-c3ccc(Cl)cc3)c(CCCCC(=O)O)nc2c1)c1cc(F)cc(F)c1 [compound 413, (S)-5-(3-(4-chlorophenyl)-7-((1-(3,5-difluorophenyl)ethyl)carbamoyl)quinoxalin-2-yl) pentanoic acid]
Ki: 0.1 to 2 nM

O=C(O)CCCCc1nc2cc(C(=O)N3CCC(c4ccc(F)cc4)CC3)ccc2nc1-c1ccc(Cl)cc1 [compound 414, 5-(3-(4-chlorophenyl)-7-(4-(4-fluorophenyl)piperidine-1-carbonyl)quinoxalin-2-yl)pentanoic acid]
Ki: 0.1 to 2 nM

O=C(O)CCCCc1nc2cc(C(=O)N3CCC(c4ccc(Cl)cc4)CC3)ccc2nc1-c1ccc(Cl)cc1 [compound 415, 5-(3-(4-chlorophenyl)-7-(4-(4-chlorophenyl)piperidine-1-carbonyl)quinoxalin-2-yl)pentanoic acid]
Ki: 0.1 to 2 nM

C[C@@H](NC(=O)c1ccc2nc(-c3ccc(Cl)cc3Cl)c(CCCCC(=O)O)nc2c1)c1ccc(F)cc1 [compound 416, (R)-5-(3-(2,4-dichlorophenyl)-7-((1-(4-fluorophenyl)ethyl)carbamoyl)quinoxalin-2-yl)pentanoic acid]
Ki: 2.1 to 20 nM

C[C@@H](NC(=O)c1ccc2nc(-c3ccc(C(F)(F)F)cc3Cl)c(CCCCC(=O)O)nc2c1)c1ccc(F)cc1 [compound 417, (R)-5-(3-(2-chloro-4-(trifluoromethyl)phenyl)-7-((1-(4-fluorophenyl)ethyl)carbamoyl)quinoxalin-2-yl) pentanoic acid]
Ki: 2.1 to 20 nM

C[C@@H](NC(=O)c1ccc2nc(-c3ccc(Cl)cc3)c(CCC(=O)O)nc2c1)c1ccc(F)cc1 [compound 418, (R)-3-(3-(4-chlorophenyl)-7-((1-(4-fluorophenyl)ethyl)carbamoyl)quinoxalin-2-yl) propanoic acid]
Ki: 20.1 to 200 nM

O=C(O)CCCCc1nc2cc(C(=O)N3CC(c4cccc(F)c4)C3)ccc2nc1-c1ccc(Cl)cc1 [compound 419, 5-(3-(4-chlorophenyl)-7-(3-(3-fluorophenyl)azetidine-1-carbonyl)quinoxalin-2-yl)pentanoic acid]
Ki: 0.1 to 2 nM

O=C(O)CCCCc1nc2cc(C(=O)N3CC(c4ccc(F)c(F)c4)C3)ccc2nc1-c1ccc(Cl)cc1 [compound 420, 5-(3-(4-chlorophenyl)-7-(3-(3,4-difluorophenyl)azetidine-1-carbonyl)quinoxalin-2-yl)pentanoic acid]
Ki: 0.1 to 2 nM

N#Cc1ccc(C2CN(C(=O)c3ccc4nc(-c5ccc(Cl)cc5)c(CCCCC(=O)O)nc4c3)C2)cc1 [compound 421, 5-(3-(4-chlorophenyl)-7-(3-(4-cyanophenyl)azetidine-l-carbonyl)quinoxalin-2-yl)pentanoic acid]
Ki: 0.1 to 2 nM
